Reference: the NIST ThermoML archive (doi:10.1021/je100832h)

Conditions: Liquid; for mass density: 101.32 kPa, Vibrating tube method; for vapor or sublimation pressure: Ebulliometric method (Recirculating still)

CCCCCCCCCC [decane]
Conditions | mass density [kg/m3] | vapor or sublimation pressure [kPa]
291.15 K | 731.22 | –
298.15 K | 726.2 | –
318.15 K | 710.9 | –
328.15 K | 703.34 | –
386.86 K | – | 15.86
390.21 K | – | 17.94
393.85 K | – | 20.43
397.62 K | – | 23.28
400.9 K | – | 26.08
403.65 K | – | 28.54
406.2 K | – | 31.1
408.52 K | – | 33.59
411.2 K | – | 36.58
413.6 K | – | 39.44
414.92 K | – | 41.05
416.83 K | – | 43.54
419.01 K | – | 46.44
420.74 K | – | 48.95
422.51 K | – | 51.55
424.11 K | – | 54.05
425.85 K | – | 56.84
427.5 K | – | 59.6
429.13 K | – | 62.41
430.69 K | – | 65.23
432.29 K | – | 68.16
433.61 K | – | 70.76
435.15 K | – | 73.71
436.57 K | – | 76.61
437.52 K | – | 78.69
438.92 K | – | 81.7
440.19 K | – | 84.46
441.29 K | – | 86.98
442.23 K | – | 89.2
443.35 K | – | 91.83
444.37 K | – | 94.3
444.8 K | – | 95.2
446.16 K | – | 98.41
446.55 K | – | 99.37
446.97 K | – | 100.62
447.3 K | – | 101.32
448.21 K | – | 103.75
449.29 K | – | 106.58
450.33 K | – | 109.39
451.31 K | – | 112.15
452.1 K | – | 114.36
452.89 K | – | 116.67
453.87 K | – | 119.46
454.7 K | – | 121.94
455.13 K | – | 123.25
455.92 K | – | 125.63
456.82 K | – | 128.4
457.59 K | – | 130.81
458.4 K | – | 133.37
459.16 K | – | 135.82
460.02 K | – | 138.64
460.42 K | – | 140
461.26 K | – | 142.82
462.1 K | – | 145.65
463.1 K | – | 148.84
463.75 K | – | 151.4
464.39 K | – | 153.69
465.12 K | – | 156.4
465.77 K | – | 158.65
466.55 K | – | 161.57
467.33 K | – | 164.47
468.04 K | – | 167.22
468.81 K | – | 170.16
469.38 K | – | 172.45
470.03 K | – | 175.03
470.6 K | – | 177.34
471.2 K | – | 179.77
471.77 K | – | 182.08
472.23 K | – | 184.14
472.78 K | – | 186.39
473.35 K | – | 188.8
474.12 K | – | 191.58
474.81 K | – | 194.61
475.37 K | – | 197.04
